#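 48-hour exposure; five concentrations; linearly interpolated endpoints. Abbreviation: GI50, concentration required for 50% inhibition of growth. The concentration for full growth arrest is given as TGI.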
# Key:
# Experiment in all cases: NCI-60 cell line screen, 48 h
# [1] = tested on: 786-0 renal
# [2] = tested on: A498 renal
# [3] = tested on: A549 NSCLC
# [4] = tested on: ACHN renal
# [5] = tested on: BT-549 breast
# [6] = tested on: CAKI-1 renal
# [7] = tested on: CCRF-CEM leukemia
# [8] = tested on: COLO 205 colon
# [9] = tested on: DU-145 prostate
# [10] = tested on: EKVX NSCLC
# [11] = tested on: HCC-2998 colon
# [12] = tested on: HCT-116 colon
# [13] = tested on: HCT-15 colon
# [14] = tested on: HL-60(TB) leukemia
# [15] = tested on: HOP-62 NSCLC
# [16] = tested on: HOP-92 NSCLC
# [17] = tested on: HS 578T breast
# [18] = tested on: HT29 colon
# [19] = tested on: IGROV1 ovarian
# [20] = tested on: K-562 leukemia
# [21] = tested on: KM12 colon
# [22] = tested on: LOX IMVI melanoma
# [23] = tested on: M14 melanoma
# [24] = tested on: MALME-3M melanoma
# [25] = tested on: MCF7 breast
# [26] = tested on: MDA-MB-231 breast
# [27] = tested on: MDA-MB-435
# [28] = tested on: MOLT-4 leukemia
# [29] = tested on: NCI-H226 lung
# [30] = tested on: NCI-H23 lung
# [31] = tested on: NCI-H460 lung
# [32] = tested on: NCI-H522 lung
# [33] = tested on: NCI/ADR-RES ovarian
# [34] = tested on: OVCAR-3 ovarian
# [35] = tested on: OVCAR-4 ovarian
# [36] = tested on: OVCAR-5 ovarian
# [37] = tested on: OVCAR-8 ovarian
# [38] = tested on: PC-3 prostate
# [39] = tested on: RPMI-8226 leukemia
# [40] = tested on: RXF 393 renal
# [41] = tested on: SF-268 CNS
# [42] = tested on: SF-295 CNS
# [43] = tested on: SF-539 CNS
# [44] = tested on: SK-MEL-2 melanoma
# [45] = tested on: SK-MEL-28 melanoma
# [46] = tested on: SK-MEL-5 melanoma
# [47] = tested on: SK-OV-3 ovarian
# [48] = tested on: SN12C renal
# [49] = tested on: SNB-19 CNS
# [50] = tested on: SNB-75 CNS
# [51] = tested on: SR leukemia
# [52] = tested on: SW-620 colon
# [53] = tested on: T-47D breast
# [54] = tested on: TK-10 renal
# [55] = tested on: U251 CNS
# [56] = tested on: UACC-257 melanoma
# [57] = tested on: UACC-62 melanoma
# [58] = tested on: UO-31 renal
compound,measurement,setting,value
COc1cccc(/C=C2\COc3ccc(O)c(O)c3C2=O)c1,GI50,[1],1470 nM
same,TGI,[1],3.86 µM
same,GI50,[2],1710 nM
same,TGI,[2],4 µM
same,GI50,[3],2410 nM
same,TGI,[3],10.3 µM
same,GI50,[4],1250 nM
same,TGI,[4],2610 nM
same,GI50,[5],1970 nM
same,TGI,[5],5.08 µM
same,GI50,[6],1280 nM
same,TGI,[6],2710 nM
same,GI50,[7],263 nM
same,TGI,[7],1110 nM
same,GI50,[8],1960 nM
same,TGI,[8],3.87 µM
same,GI50,[9],1680 nM
same,TGI,[9],4.16 µM
same,GI50,[10],1820 nM
same,TGI,[10],3.95 µM
same,GI50,[11],1600 nM
same,TGI,[11],3.03 µM
same,GI50,[12],1250 nM
same,TGI,[12],2900 nM
same,GI50,[13],469 nM
same,TGI,[13],4.91 µM
same,GI50,[14],405 nM
same,TGI,[14],3.2 µM
same,GI50,[15],2800 nM
same,TGI,[15],10.4 µM
same,GI50,[16],2110 nM
same,TGI,[16],8.01 µM
same,GI50,[17],2900 nM
same,TGI,[17],21.8 µM
same,GI50,[18],2260 nM
same,TGI,[18],5.07 µM
same,GI50,[19],781 nM
same,TGI,[19],3.63 µM
same,GI50,[20],396 nM
same,TGI,[20],> 100 µM
same,GI50,[21],1440 nM
same,TGI,[21],3.25 µM
same,GI50,[22],740 nM
same,TGI,[22],2060 nM
same,GI50,[23],1880 nM
same,TGI,[23],4.76 µM
same,GI50,[24],1450 nM
same,TGI,[24],3.71 µM
same,GI50,[25],438 nM
same,TGI,[25],3.12 µM
same,GI50,[26],1690 nM
same,TGI,[26],6.5 µM
same,GI50,[27],1460 nM
same,TGI,[27],4.12 µM
same,GI50,[28],1640 nM
same,TGI,[28],17.7 µM
same,GI50,[29],2030 nM
same,TGI,[29],5.38 µM
same,GI50,[30],1580 nM
same,TGI,[30],3.34 µM
same,GI50,[31],2440 nM
same,TGI,[31],8.19 µM
same,GI50,[32],193 nM
same,TGI,[32],448 nM
same,GI50,[33],1640 nM
same,TGI,[33],5.95 µM
same,GI50,[34],629 nM
same,TGI,[34],1930 nM
same,GI50,[35],2180 nM
same,TGI,[35],9.47 µM
same,GI50,[36],2180 nM
same,TGI,[36],4.69 µM
same,GI50,[37],1790 nM
same,TGI,[37],13.2 µM
same,GI50,[38],770 nM
same,TGI,[38],6.04 µM
same,GI50,[39],223 nM
same,TGI,[39],626 nM
same,GI50,[40],1190 nM
same,TGI,[40],2480 nM
same,GI50,[41],1820 nM
same,TGI,[41],5.17 µM
same,GI50,[42],3.2 µM
same,TGI,[42],10.2 µM
same,GI50,[43],1180 nM
same,TGI,[43],3.06 µM
same,GI50,[44],2160 nM
same,TGI,[44],5.15 µM
same,GI50,[45],1780 nM
same,TGI,[45],4.13 µM
same,GI50,[46],1440 nM
same,TGI,[46],2760 nM
same,GI50,[47],3.38 µM
same,TGI,[47],12.7 µM
same,GI50,[48],1090 nM
same,TGI,[48],3.62 µM
same,GI50,[49],1840 nM
same,TGI,[49],5.07 µM
same,GI50,[50],1420 nM
same,TGI,[50],10.3 µM
same,GI50,[51],359 nM
same,TGI,[51],6.97 µM
same,GI50,[52],1160 nM
same,TGI,[52],3.85 µM
same,GI50,[53],1580 nM
same,TGI,[53],4.38 µM
same,GI50,[54],1740 nM
same,TGI,[54],3.49 µM
same,GI50,[55],1150 nM
same,TGI,[55],2490 nM
same,GI50,[56],1730 nM
same,TGI,[56],4.77 µM
same,GI50,[57],1530 nM
same,TGI,[57],3.22 µM
same,GI50,[58],853 nM
same,TGI,[58],2090 nM

# From PubChem BioAssay (NCI)
